Patent US20250099406A1, “TREATING CANCERS WITH COMBINATIONS OF ACYLFULVENES WITH IBRUTINIB AND/OR BORTEZOMIB” (LANTERN PHARMA INC., priority 2022, published 2025)
“Also recorded” adds a separate entry of the source.

Tested on: JeKo-1 MCL xenograft tumors
Assay: JeKo-1 MCL cell line-derived xenograft mouse study
Format: in vivo, NOD.Scid mice
Settings: for tumor response to single-agent treatment: n=8/arm, low dose LP-284 (2 mg/kg i.v.), bortezomib 1 mg/kg i.p. or ibrutinib 50 mg/kg p.o.; for tumor volume: at day 17, on bortezomib (1 mg/kg i.p.) or ibrutinib (50 mg/kg p.o.), tumors refractory; for tumor size: day 16, treated by bortezomib (1 mg/kg, i.p.) or ibrutinib (50 mg/kg, p.o.)
Experimental: The JeKo-1 MCL cell line-derived xenograft mice (n=8/arm) were treated with vehicle, LP-284 (2 mg/kg or 4 mg/kg, i.v.), bortezomib (1 mg/kg, i.p.), or ibrutinib (50 mg/kg, p.o.) at days indicated by arrows in the graph. Tumor volumes were measured every 2 to 4 days after treatment initiation.
The two drugs were replaced with one cycle of 4 mg/kg LP-284 or the vehicle (saline).
Each treatment arm was then further split into two sub-arms (n=4/sub-arm), one of which was treated by vehicle whereas the other was treated by 4 mg/kg LP-284 (i.v.), as indicated by arrows in the graph.
Five-week old NOD.Scid mice were procured through Envigo (Item 17003F). Mice were fed Teklad irradiated (sterilized) mouse diet and bedded with Teklad irradiated (sterilized) corncob bedding from Envigo (Indianapolis, IN). Mice were housed in Optimice carousel sterile quarters with filtered air supply in disposable cages from Animal Care Systems, Inc. (Centennial, CO). A total of 1×10^7 cells JeKo-1 cells were injected subcutaneously into the right hind flank of each animal using a […] needle. Vehicle (saline), 4 mg/kg or 2 mg/kg LP-284 was administered as an intravenous injection on day 1, 3, 5, 7, 9, 17, 19, 21, 23, 25. 50 mg/kg ibrutinib was administered orally daily on day 1-16. 1 mg/kg bortezomib administered as an intraperitoneal injection on day 1, 4, 7, 10. The ibrutinib and bortezomib arms were further treated with vehicle or 4 mg/kg LP-284 intravenously on day 17, 19, 21, 23, 25. Tumors were measured in two dimensions using calipers, and volume was calculated using the formula:
TumorVolume (mm^3)=w2×l/2
where w=width and l=length, in mm, of the tumor. For this study the calipers were aligned to the tumor edges (the tumors were not squeezed with the caliper).

Compound	survival versus vehicle (Kaplan-Meier) (bortezomib or ibrutinib pre-treated and refractory xenograft mice switched to 4 mg/kg LP-284 i.v., p<0.001)	tumor response to single-agent treatment	tumor response after switching bortezomib- or ibrutinib-refractory mice to LP-284 (one cycle of 4 mg/kg LP-284 i.v. on day 17, 19, 21, 23, 25, tumors ~2000 mm3, n=4/sub-arm, 4 mg/kg)	tumor volume	tumor size	tumor response to single-agent treatment (listed as Bortezomib)	tumor response to single-agent treatment (listed as Ibrutinib)
CC1=C(CN(O)C(N)=O)C2=C(C)C3(CC3)[C@](C)(O)C(=O)C2=C1 [LP-284, (+)-hydroxyureamethyl acylfulvene]	approximately two times longer; also recorded: prolonged survival	resulted in refractory cancer after initially controlling cell growth in tumors	almost completely eliminating; also recorded: near complete tumor regression; also recorded: diminished rapidly				
CC(C)C[C@H](NC(=O)[C@H](Cc1ccccc1)NC(=O)c1cnccn1)B(O)O [bortezomib, [(1R)-3-methyl-1-({(2S)-3-phenyl-2-[(pyrazin-2-ylcarbonyl)amino]propanoyl}amino)butyl]boronic acid]		refractory		~2000 mm3	~2000 mm3	resulted in refractory cancer after initially controlling cell growth in tumors; also recorded: become refractory and relapse	
C=CC(=O)N1CCC[C@@H](n2nc(-c3ccc(Oc4ccccc4)cc3)c3c(N)ncnc32)C1 [ibrutinib, (R)-1-(3-(4-amino-3-(4-phenoxyphenyl)-1H-pyrazolo[3,4-d]pyrimidin-1-yl)piperidin-1-yl) prop-2-en-1-one]		refractory		~2000 mm3	~2000 mm3		resulted in refractory cancer after initially controlling cell growth in tumors; also recorded: become refractory and relapse
